Source: article PMC10416764, “Crystal structure of Prp16 in complex with ADP” (Acta Crystallographica. Section F, Structural Biology …, 2023)

Biological target: T1, ctPrp16 (302-920) (Thermochaetoides thermophila, UniProt G0S0F9)
T1 construct: gene CTHT_0009880; residues 302-920 (RecA1, RecA2, WH, HB, OB-fold); N- and C-terminally truncated; codon-optimized gene, E. coli Rosetta2 (DE3), pGEX-6P-3, GST tag cleaved by PreScission; one molecule per asymmetric unit
T1 sequence (G0S0F9 301-920 limits assumed): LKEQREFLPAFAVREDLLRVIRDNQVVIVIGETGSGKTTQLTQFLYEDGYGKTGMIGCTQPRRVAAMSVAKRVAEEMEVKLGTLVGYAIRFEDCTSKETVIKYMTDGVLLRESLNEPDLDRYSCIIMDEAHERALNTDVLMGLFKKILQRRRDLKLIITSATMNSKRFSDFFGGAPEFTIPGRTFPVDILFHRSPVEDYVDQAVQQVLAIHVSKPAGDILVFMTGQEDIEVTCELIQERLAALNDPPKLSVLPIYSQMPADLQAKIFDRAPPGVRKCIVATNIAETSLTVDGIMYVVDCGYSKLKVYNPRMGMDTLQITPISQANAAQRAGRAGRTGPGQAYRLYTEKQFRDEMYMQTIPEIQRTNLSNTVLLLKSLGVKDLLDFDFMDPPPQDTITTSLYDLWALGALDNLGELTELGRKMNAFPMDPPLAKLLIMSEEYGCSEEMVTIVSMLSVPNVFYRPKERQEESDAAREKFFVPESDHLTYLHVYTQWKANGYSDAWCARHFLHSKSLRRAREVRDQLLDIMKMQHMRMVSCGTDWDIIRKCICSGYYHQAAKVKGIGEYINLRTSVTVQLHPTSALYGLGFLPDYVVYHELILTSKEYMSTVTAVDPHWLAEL
Experiment: X-ray crystallography, […] A, co-crystallization
Assay type: binding
Conditions: Mg2+ bound; MES pH 6.5; 293 K; tenfold molar excess of ADP; nucleotide site between RecA1 and RecA2

**Q.** How did the “X-ray crystallography, 1.9 A, co-crystallization” value turn out when `Nc1ncnc2c1ncn2[C@@H]1O[C@H](COP(=O)(O)OP(=O)(O)O)[C@@H](O)[C@H]1O` [ADP] was run?
**A.** The polder omit map clearly reveals the presence of ADP and a magnesium ion
